From the NIST ThermoML archive (doi:10.1016/j.jct.2015.11.023)
± gives the expanded uncertainty stated by the source.

Experiments:
[1] = wn = mass fraction of the nth substance listed; conditions: for surface tension liquid-gas: Maximal bubble pressure; for mass density: 100 kPa, Liquid, Vibrating tube method
[2] = refractive index (Na D-line) (dimensionless); wn = mass fraction of the nth substance listed; conditions: 100 kPa, Liquid, Standard Abbe refractometry

CCC[n+]1ccccc1.N#C[N-]C#N [1-propylpyridinium dicyanamide] + O
surface tension liquid-gas ([1]; 303.15 K, w2 = 0.00205): 58.1 ± 0.8 mN/m | surface tension liquid-gas ([1]; 303.15 K, w2 = 0.0035): 58.4 ± 0.8 mN/m | surface tension liquid-gas ([1]; 303.15 K, w2 = 0.005): 58.7 ± 0.8 mN/m | surface tension liquid-gas ([1]; 303.15 K, w2 = 0.00649): 59 ± 0.8 mN/m | surface tension liquid-gas ([1]; 303.15 K, w2 = 0.00802): 59.3 ± 0.8 mN/m | mass density ([1]; 303.15 K, w2 = 0.00121): 1086.72 ± 4.1 kg/m3 | mass density ([1]; 303.15 K, w2 = 0.00271): 1086.48 ± 4.1 kg/m3 | mass density ([1]; 303.15 K, w2 = 0.00412): 1086.25 ± 4.1 kg/m3 | mass density ([1]; 303.15 K, w2 = 0.00573): 1085.98 ± 4.1 kg/m3 | mass density ([1]; 303.15 K, w2 = 0.00724): 1085.74 ± 4.1 kg/m3 | surface tension liquid-gas ([1]; 308.15 K, w2 = 0.00205): 57.8 ± 0.8 mN/m | surface tension liquid-gas ([1]; 308.15 K, w2 = 0.0035): 58.1 ± 0.8 mN/m | surface tension liquid-gas ([1]; 308.15 K, w2 = 0.005): 58.4 ± 0.8 mN/m | surface tension liquid-gas ([1]; 308.15 K, w2 = 0.00649): 58.7 ± 0.8 mN/m | surface tension liquid-gas ([1]; 308.15 K, w2 = 0.00802): 59 ± 0.8 mN/m | mass density ([1]; 308.15 K, w2 = 0.00121): 1083.57 ± 4.1 kg/m3 | mass density ([1]; 308.15 K, w2 = 0.00271): 1083.3 ± 4.1 kg/m3 | mass density ([1]; 308.15 K, w2 = 0.00412): 1083.06 ± 4.1 kg/m3 | mass density ([1]; 308.15 K, w2 = 0.00573): 1082.77 ± 4.1 kg/m3 | mass density ([1]; 308.15 K, w2 = 0.00724): 1082.49 ± 4.1 kg/m3 | surface tension liquid-gas ([1]; 313.15 K, w2 = 0.00205): 57.4 ± 0.8 mN/m | surface tension liquid-gas ([1]; 313.15 K, w2 = 0.0035): 57.8 ± 0.8 mN/m | surface tension liquid-gas ([1]; 313.15 K, w2 = 0.005): 58.1 ± 0.8 mN/m | surface tension liquid-gas ([1]; 313.15 K, w2 = 0.00649): 58.4 ± 0.8 mN/m | surface tension liquid-gas ([1]; 313.15 K, w2 = 0.00802): 58.7 ± 0.8 mN/m | mass density ([1]; 313.15 K, w2 = 0.00121): 1080.46 ± 4.1 kg/m3 | mass density ([1]; 313.15 K, w2 = 0.00271): 1080.2 ± 4.1 kg/m3 | mass density ([1]; 313.15 K, w2 = 0.00412): 1079.95 ± 4.1 kg/m3 | mass density ([1]; 313.15 K, w2 = 0.00573): 1079.65 ± 4.1 kg/m3 | mass density ([1]; 313.15 K, w2 = 0.00724): 1079.36 ± 4.1 kg/m3 | surface tension liquid-gas ([1]; 318.15 K, w2 = 0.00205): 57.1 ± 0.8 mN/m | surface tension liquid-gas ([1]; 318.15 K, w2 = 0.0035): 57.5 ± 0.8 mN/m | surface tension liquid-gas ([1]; 318.15 K, w2 = 0.005): 57.8 ± 0.8 mN/m | surface tension liquid-gas ([1]; 318.15 K, w2 = 0.00649): 58.1 ± 0.8 mN/m | surface tension liquid-gas ([1]; 318.15 K, w2 = 0.00802): 58.4 ± 0.8 mN/m | mass density ([1]; 318.15 K, w2 = 0.00121): 1077.36 ± 4.1 kg/m3 | mass density ([1]; 318.15 K, w2 = 0.00271): 1077.12 ± 4.1 kg/m3 | mass density ([1]; 318.15 K, w2 = 0.00412): 1076.87 ± 4.1 kg/m3 | mass density ([1]; 318.15 K, w2 = 0.00573): 1076.55 ± 4.1 kg/m3 | mass density ([1]; 318.15 K, w2 = 0.00724): 1076.27 ± 4.1 kg/m3 | surface tension liquid-gas ([1]; 323.15 K, w2 = 0.00205): 56.9 ± 0.8 mN/m | surface tension liquid-gas ([1]; 323.15 K, w2 = 0.0035): 57.2 ± 0.8 mN/m | surface tension liquid-gas ([1]; 323.15 K, w2 = 0.005): 57.5 ± 0.8 mN/m | surface tension liquid-gas ([1]; 323.15 K, w2 = 0.00649): 57.8 ± 0.8 mN/m | surface tension liquid-gas ([1]; 323.15 K, w2 = 0.00802): 58.2 ± 0.8 mN/m | mass density ([1]; 323.15 K, w2 = 0.00121): 1074.29 ± 4.1 kg/m3 | mass density ([1]; 323.15 K, w2 = 0.00271): 1074.02 ± 4.1 kg/m3 | mass density ([1]; 323.15 K, w2 = 0.00412): 1073.79 ± 4.1 kg/m3 | mass density ([1]; 323.15 K, w2 = 0.00573): 1073.46 ± 4.1 kg/m3 | mass density ([1]; 323.15 K, w2 = 0.00724): 1073.19 ± 4.1 kg/m3 | surface tension liquid-gas ([1]; 328.15 K, w2 = 0.00205): 56.5 ± 0.8 mN/m | surface tension liquid-gas ([1]; 328.15 K, w2 = 0.0035): 56.8 ± 0.8 mN/m | surface tension liquid-gas ([1]; 328.15 K, w2 = 0.005): 57.2 ± 0.8 mN/m | surface tension liquid-gas ([1]; 328.15 K, w2 = 0.00649): 57.5 ± 0.8 mN/m | surface tension liquid-gas ([1]; 328.15 K, w2 = 0.00802): 57.8 ± 0.8 mN/m | mass density ([1]; 328.15 K, w2 = 0.00121): 1071.24 ± 4.1 kg/m3 | mass density ([1]; 328.15 K, w2 = 0.00271): 1070.97 ± 4.1 kg/m3 | mass density ([1]; 328.15 K, w2 = 0.00412): 1070.72 ± 4.1 kg/m3 | mass density ([1]; 328.15 K, w2 = 0.00573): 1070.41 ± 4.1 kg/m3 | mass density ([1]; 328.15 K, w2 = 0.00724): 1070.15 ± 4.1 kg/m3 | surface tension liquid-gas ([1]; 333.15 K, w2 = 0.00205): 56.2 ± 0.8 mN/m | surface tension liquid-gas ([1]; 333.15 K, w2 = 0.0035): 56.5 ± 0.8 mN/m | surface tension liquid-gas ([1]; 333.15 K, w2 = 0.005): 56.9 ± 0.8 mN/m | surface tension liquid-gas ([1]; 333.15 K, w2 = 0.00649): 57.2 ± 0.8 mN/m | surface tension liquid-gas ([1]; 333.15 K, w2 = 0.00802): 57.6 ± 0.8 mN/m | mass density ([1]; 333.15 K, w2 = 0.00121): 1068.17 ± 4.1 kg/m3 | mass density ([1]; 333.15 K, w2 = 0.00271): 1067.92 ± 4.1 kg/m3 | mass density ([1]; 333.15 K, w2 = 0.00412): 1067.67 ± 4.1 kg/m3 | mass density ([1]; 333.15 K, w2 = 0.00573): 1067.34 ± 4.1 kg/m3 | mass density ([1]; 333.15 K, w2 = 0.00724): 1067.04 ± 4.1 kg/m3 | surface tension liquid-gas ([1]; 338.15 K, w2 = 0.00205): 55.8 ± 0.8 mN/m | surface tension liquid-gas ([1]; 338.15 K, w2 = 0.0035): 56.1 ± 0.8 mN/m | surface tension liquid-gas ([1]; 338.15 K, w2 = 0.005): 56.5 ± 0.8 mN/m | surface tension liquid-gas ([1]; 338.15 K, w2 = 0.00649): 56.8 ± 0.8 mN/m | surface tension liquid-gas ([1]; 338.15 K, w2 = 0.00802): 57.1 ± 0.8 mN/m | mass density ([1]; 338.15 K, w2 = 0.00121): 1065.15 ± 4.1 kg/m3 | mass density ([1]; 338.15 K, w2 = 0.00271): 1064.88 ± 4.1 kg/m3 | mass density ([1]; 338.15 K, w2 = 0.00412): 1064.64 ± 4.1 kg/m3 | mass density ([1]; 338.15 K, w2 = 0.00573): 1064.3 ± 4.1 kg/m3 | mass density ([1]; 338.15 K, w2 = 0.00724): 1063.99 ± 4.1 kg/m3 | refractive index ([2]; 303.15 K, w2 = 0.00205): 1.5386 ± 0.006 | refractive index ([2]; 303.15 K, w2 = 0.00353): 1.5384 ± 0.006 | refractive index ([2]; 303.15 K, w2 = 0.00496): 1.5381 ± 0.006 | refractive index ([2]; 303.15 K, w2 = 0.00639): 1.5378 ± 0.006 | refractive index ([2]; 303.15 K, w2 = 0.0079): 1.5375 ± 0.006 | refractive index ([2]; 308.15 K, w2 = 0.00205): 1.537 ± 0.006 | refractive index ([2]; 308.15 K, w2 = 0.00353): 1.5368 ± 0.006 | refractive index ([2]; 308.15 K, w2 = 0.00496): 1.5365 ± 0.006 | refractive index ([2]; 308.15 K, w2 = 0.00639): 1.5362 ± 0.006 | refractive index ([2]; 308.15 K, w2 = 0.0079): 1.5359 ± 0.006 | refractive index ([2]; 313.15 K, w2 = 0.00205): 1.5352 ± 0.006 | refractive index ([2]; 313.15 K, w2 = 0.00353): 1.5349 ± 0.006 | refractive index ([2]; 313.15 K, w2 = 0.00496): 1.5347 ± 0.006 | refractive index ([2]; 313.15 K, w2 = 0.00639): 1.5344 ± 0.006 | refractive index ([2]; 313.15 K, w2 = 0.0079): 1.5341 ± 0.006 | refractive index ([2]; 318.15 K, w2 = 0.00205): 1.5338 ± 0.006 | refractive index ([2]; 318.15 K, w2 = 0.00353): 1.5335 ± 0.006 | refractive index ([2]; 318.15 K, w2 = 0.00496): 1.5332 ± 0.006 | refractive index ([2]; 318.15 K, w2 = 0.00639): 1.5329 ± 0.006 | refractive index ([2]; 318.15 K, w2 = 0.0079): 1.5327 ± 0.006 | refractive index ([2]; 323.15 K, w2 = 0.00205): 1.5325 ± 0.006 | refractive index ([2]; 323.15 K, w2 = 0.00353): 1.5322 ± 0.006 | refractive index ([2]; 323.15 K, w2 = 0.00496): 1.5319 ± 0.006 | refractive index ([2]; 323.15 K, w2 = 0.00639): 1.5316 ± 0.006 | refractive index ([2]; 323.15 K, w2 = 0.0079): 1.5313 ± 0.006 | refractive index ([2]; 328.15 K, w2 = 0.00205): 1.5308 ± 0.006 | refractive index ([2]; 328.15 K, w2 = 0.00353): 1.5306 ± 0.006 | refractive index ([2]; 328.15 K, w2 = 0.00496): 1.5303 ± 0.006 | refractive index ([2]; 328.15 K, w2 = 0.00639): 1.5301 ± 0.006 | refractive index ([2]; 328.15 K, w2 = 0.0079): 1.5298 ± 0.006 | refractive index ([2]; 333.15 K, w2 = 0.00205): 1.529 ± 0.006 | refractive index ([2]; 333.15 K, w2 = 0.00353): 1.5288 ± 0.006 | refractive index ([2]; 333.15 K, w2 = 0.00496): 1.5286 ± 0.006 | refractive index ([2]; 333.15 K, w2 = 0.00639): 1.5283 ± 0.006 | refractive index ([2]; 333.15 K, w2 = 0.0079): 1.5281 ± 0.006 | refractive index ([2]; 338.15 K, w2 = 0.00205): 1.5273 ± 0.006 | refractive index ([2]; 338.15 K, w2 = 0.00353): 1.527 ± 0.006 | refractive index ([2]; 338.15 K, w2 = 0.00496): 1.5268 ± 0.006 | refractive index ([2]; 338.15 K, w2 = 0.00639): 1.5265 ± 0.006 | refractive index ([2]; 338.15 K, w2 = 0.0079): 1.5263 ± 0.006
